# Experimental data taken from patent publication US12311056B2, “Composition and method for treatment of neuropsychiatric disorders” (Duke University, priority 2015, dated 2025).
# Legend:
# clinical = assay: clinical
# Description: Ond-PR2 is a bead formulation prepared from ondansetron as the active pharmaceutical ingredient (API). MPh-IR is an immediate-release generic formulation of methylphenidate. [MPh-IR+Ond-PR2] is a single encapsulated dosage form consisting of MPh-IR and Ond-PR2 as Components 1 and 2, respectively. Following in vitro dissolution testing and PK and safety determinations in normal healthy volunteers (Phase 1 trial), we conducted a proof-of-concept, randomized, double-blind, placebo-controlled Phase 2A safety/efficacy clinical trial. A total of 48 patients residing in a residential program and meeting the DSM-4 criteria for primary psychostimulant abuse were screened, and 30 qualifying subjects were randomized into either [MPh-IR+Ond-PR2] or placebo treatment group.
# Single capsules containing either [MPh-IR+Ond-PR2] or dextrose (placebo) were administered once a day for 14 days. Subjects also underwent single fMRI-based assessments 1-7 days before the first study dosing (pre-treatment) and again between Day 3 and 7 days after the last dosing (i.e., post-treatment assessment was performed after complete drug washout). Outcome measures for group comparisons were behavioral rating scales and blood-oxygenation-level-dependent (BOLD) functional imaging results under well-established resting-state, cue-reactivity and Go/noGO task paradigms.
# On Day 1 and Day 14, 24-four-hour blood PK samples were collected following single oral administrations of a [MPh-IR+Ond-PR2] capsule to: (1) estimate the PK parameters of the two Components (i.e., MPh-IR and Ond-PR2] by quantifying serum methylphenidate and ondansetron concentrations; and (2) determine whether or not any of these parameters change after single daily administrations for 14 days. Descriptive statistics for blood methylphenidate (MPh-IR) and ondansetron (Ond-PR2) concentrations at each time point were summarized as the mean, standard deviation and coefficient of variation. Estimation and statistical analyses of PK parameters were performed with SAS 9.3, and BABE Solution.
# rat animal models of LID = assay: Levodopa-induced abnormal involuntary movement (LIAIM) in 6-OHDA-lesioned rat models of LID; assay type: in vivo; conditions: 2 weeks s.c. treatment; challenge with 25 mg/kg levodopa two days after last treatment; compared to L_SS
# Method: First, the dopaminergic neurotoxin 6-hydroxydopamine (6-OHDA) was injected into the right medial forebrain bundle of rats to induce unilateral lesions of the nigrostriatal DA pathway. Starting 3 weeks after 6-OHDA lesion, animals were treated twice daily with levodopa methyl ester (25 mg/kg, i.p., bid immediately preceded by 6.5 mg/kg, i.p. benserazide) for 3 weeks to establish LIAIM. Three hour LIAIM scores were quantified twice a week during the levodopa treatment using standard LIAIM rating scales.
# Following LIAIM establishment, animals with combined limb, axial and orolingual LIAIM severity scores>25 were treated with one of the 3 treatment regimens for 2 weeks: (1) pergolide (0.1 mg/kg) followed 3.5 hours later by the 5-HT2A/2C antagonist ketanserin (1 mg/kg) [L_PK group]; (2) pergolide+saline 3.5 hours later [L_PS Group]; and (3) DMSO (1% in saline)+saline 3.5 hours later [L_SS]. All injections were given subcutaneously.
# Two days after the last L_PK, L_PS or L-SS treatment, all animals were challenged with 25 mg/kg levodopa and their LIAIM scores were again quantified.
# 5-HT2C receptors = target: T1, 5-HT2C receptors (Homo sapiens, UniProt P28335); conditions: cited from earlier work
# T1 sequence (P28335 33-458): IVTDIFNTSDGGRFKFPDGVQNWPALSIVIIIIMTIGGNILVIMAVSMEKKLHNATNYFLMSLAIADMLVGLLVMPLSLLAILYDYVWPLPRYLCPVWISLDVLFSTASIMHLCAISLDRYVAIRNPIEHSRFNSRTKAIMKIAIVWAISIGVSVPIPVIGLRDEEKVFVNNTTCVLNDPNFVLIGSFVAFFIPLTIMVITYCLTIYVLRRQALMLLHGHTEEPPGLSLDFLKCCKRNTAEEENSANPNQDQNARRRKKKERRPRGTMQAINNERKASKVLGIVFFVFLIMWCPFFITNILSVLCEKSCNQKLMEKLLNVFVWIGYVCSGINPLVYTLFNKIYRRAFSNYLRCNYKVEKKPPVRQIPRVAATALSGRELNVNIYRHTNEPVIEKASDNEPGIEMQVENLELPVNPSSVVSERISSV
# adrenergic α2 receptors = conditions: cited from earlier work
# [1] = cited from earlier work
# CYP2D6 = CYP2D6 (Homo sapiens, UniProt P10635); conditions: cited from earlier work
# CYP2D6, sequence (P10635 whole entry): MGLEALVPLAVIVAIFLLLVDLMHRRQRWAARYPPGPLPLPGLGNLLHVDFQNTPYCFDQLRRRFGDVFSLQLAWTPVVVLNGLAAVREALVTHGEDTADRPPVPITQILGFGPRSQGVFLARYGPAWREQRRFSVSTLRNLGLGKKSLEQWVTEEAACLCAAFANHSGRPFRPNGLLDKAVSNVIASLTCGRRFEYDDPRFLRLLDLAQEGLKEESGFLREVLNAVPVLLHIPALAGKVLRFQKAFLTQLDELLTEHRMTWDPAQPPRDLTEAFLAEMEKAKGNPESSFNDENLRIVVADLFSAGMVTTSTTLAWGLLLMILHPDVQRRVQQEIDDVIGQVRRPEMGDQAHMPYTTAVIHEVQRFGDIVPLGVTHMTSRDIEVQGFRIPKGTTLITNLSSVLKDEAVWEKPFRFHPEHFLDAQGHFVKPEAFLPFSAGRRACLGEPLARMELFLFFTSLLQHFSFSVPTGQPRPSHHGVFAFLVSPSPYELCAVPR
# 5-HT2A receptors = 5-HT2A receptors (Homo sapiens, UniProt P28223); conditions: cited from earlier work
# 5-HT2A receptors, sequence (P28223 whole entry): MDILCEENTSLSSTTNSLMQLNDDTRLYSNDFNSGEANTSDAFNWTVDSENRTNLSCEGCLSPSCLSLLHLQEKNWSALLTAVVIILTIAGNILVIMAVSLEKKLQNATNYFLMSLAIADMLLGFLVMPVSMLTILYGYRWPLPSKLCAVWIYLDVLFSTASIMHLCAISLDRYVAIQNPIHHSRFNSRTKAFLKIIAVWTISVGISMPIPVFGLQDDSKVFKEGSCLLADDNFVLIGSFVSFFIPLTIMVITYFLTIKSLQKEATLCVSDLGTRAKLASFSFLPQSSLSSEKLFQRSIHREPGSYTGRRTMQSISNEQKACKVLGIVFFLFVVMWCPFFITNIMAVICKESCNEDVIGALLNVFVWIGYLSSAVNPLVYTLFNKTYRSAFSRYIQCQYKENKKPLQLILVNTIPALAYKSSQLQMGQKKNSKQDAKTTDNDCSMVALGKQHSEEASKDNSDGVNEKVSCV
# 5-HT3 receptors = conditions: cited from earlier work
# histamine H1 receptors = histamine H1 receptors (Homo sapiens, UniProt P35367); conditions: cited from earlier work
# histamine H1 receptors, sequence (P35367 whole entry): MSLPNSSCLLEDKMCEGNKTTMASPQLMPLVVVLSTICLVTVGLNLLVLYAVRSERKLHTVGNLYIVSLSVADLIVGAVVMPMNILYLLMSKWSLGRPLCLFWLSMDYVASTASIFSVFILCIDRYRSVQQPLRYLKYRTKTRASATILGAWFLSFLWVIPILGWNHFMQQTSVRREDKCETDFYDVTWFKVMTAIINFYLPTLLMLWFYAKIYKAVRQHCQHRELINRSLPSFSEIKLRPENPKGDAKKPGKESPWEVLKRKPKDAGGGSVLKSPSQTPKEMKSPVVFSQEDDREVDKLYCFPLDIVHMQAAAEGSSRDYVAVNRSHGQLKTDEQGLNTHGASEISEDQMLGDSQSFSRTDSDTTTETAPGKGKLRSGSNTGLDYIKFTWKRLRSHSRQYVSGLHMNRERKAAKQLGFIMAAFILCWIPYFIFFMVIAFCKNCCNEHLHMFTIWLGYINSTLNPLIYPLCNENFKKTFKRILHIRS
# 5-HT1A receptors = target: T2, 5-HT1A receptors (Homo sapiens, UniProt P08908); conditions: cited from earlier work
# T2 sequence (P08908 1-422): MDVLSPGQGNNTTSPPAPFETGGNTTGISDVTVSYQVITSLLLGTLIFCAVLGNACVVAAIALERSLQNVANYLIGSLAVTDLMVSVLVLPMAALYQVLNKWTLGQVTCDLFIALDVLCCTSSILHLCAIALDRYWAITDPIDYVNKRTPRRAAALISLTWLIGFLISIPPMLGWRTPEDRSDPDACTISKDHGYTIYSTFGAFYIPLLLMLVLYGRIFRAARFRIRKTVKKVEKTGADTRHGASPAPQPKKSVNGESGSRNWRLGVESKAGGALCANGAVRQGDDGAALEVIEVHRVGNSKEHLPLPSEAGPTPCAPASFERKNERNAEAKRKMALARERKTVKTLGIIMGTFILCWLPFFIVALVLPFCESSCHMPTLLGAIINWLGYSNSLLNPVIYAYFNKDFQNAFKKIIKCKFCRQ
# [2] = vs R(−) enantiomer of mirtazapine
smiles,measurement,setting,value
"Cc1nccn1CC1CCc2c(c3ccccc3n2C)C1=O (stereo not drawn) [Ondansetron, ondansetron]",AUC (0-24),"clinical; human, in vivo",186.4 ng·h
same,AUC(0-inf),"clinical; human, in vivo",226.4 ng·h
same,"Change in Cmax, Cmin, Tmax, t½, AUC (0-24), AUC (0-inf.) and Kel between Day 1 and Day 14","clinical; human, in vivo",No significant changes
same,Cmax,"clinical; human, in vivo",12.6 ng/mL
same,Half life(t1/2),"clinical; human, in vivo",7.2 h
same,Kel (elimination rate constant),"clinical; human, in vivo",0.1 h − 1
same,Tmax,"clinical; human, in vivo",5.8 h
same,AUC(0-t),"clinical; human, in vivo, AUC (0-24)",136 ng·h/mL
same,AUC(0-inf),"clinical; human, in vivo, AUC (0-inf)",179 ng·h/mL
same,half-life,"clinical; human, in vivo, Half life(t1/2)",6.9 h
same,Tmax,"clinical; human, in vivo, Tmax",6.3 h
same,Cmax,"clinical; human, in vivo, po",11.2 ng/mL
"COC(=O)C(c1ccccc1)C1CCCCN1 (stereo not drawn) [Methylphenidate, methylphenidate]",Cmin (minimum blood concentration before the next administration),"clinical; Day 1, mean",0 ng
same,Kel (elimination rate constant),"clinical; Day 1, mean",0.2 h − 1
same,AUC (0-24),"clinical; Day 14, mean",21.5 ng·h
same,Cmin (minimum blood concentration before the next administration),"clinical; Day 14, mean",0 ng
same,Half life(t1/2),"clinical; Day 14, mean",3.1 h
same,Kel (elimination rate constant),"clinical; Day 14, mean",0.2 h − 1
same,AUC(0-t),"clinical; human, in vivo",21.5 ng·h/mL
same,Cmax,"clinical; human, in vivo",3.4 ng/mL
same,half-life,"clinical; human, in vivo",3.2 h
same,AUC(0-inf),"clinical; human, in vivo, AUC (0-inf), Day 1, mean",21.6 ng·h/mL
same,AUC(0-inf),"clinical; human, in vivo, AUC (0-inf), Day 14, mean",23.4 ng·h/mL
same,Tmax,"clinical; human, in vivo, Tmax, Day 1, mean",1.9 h
same,Tmax,"clinical; human, in vivo, Tmax, Day 14, mean",1.7 h
same,Cmax,"clinical; human, in vivo, po",4 ng/mL
same,"Change in Cmax, Cmin, Tmax, t½, AUC (0-24), AUC (0-inf.) and Kel between Day 1 and Day 14",clinical; once-daily [MPh-IR+Ond-PR2] for 14 days,No significant changes
"CCCN1C[C@H](CSC)C[C@@H]2c3cccc4[nH]cc(c34)C[C@H]21 [L_P/S, pergolide]",Total LIAIM scores (ratios between post- and pre-reversal treatment scores),rat animal models of LID,No differences
CN1CCN2c3ncccc3Cc3ccccc3[C@H]2C1 [esmirtazapine],Affinity for 5-HT2C receptors in comparison with the R(−) enantiomer,5-HT2C receptors; [2],higher affinity
same,Affinity for α2 adrenergic receptors in comparison with the R(−) enantiomer,adrenergic α2 receptors; [2],higher affinity
same,Clearance in poor metabolizers compared to extensive metabolizers,[1]; CYP2D6 phenotype,twice as low
same,Absorption in comparison with the R(−) enantiomer,[1]; enantioselective transport process in the gut wall,may be absorbed faster (but not more extensively)
same,Metabolising enzyme,CYP2D6,predominantly metabolized by CYP2D6
"CN1CCN2c3ncccc3Cc3ccccc3C2C1 (racemic) [Mirtazapine, 1,2,3,4,10,14b-hexahydro-2-methylpyrazino[2,1-a]pyrido[2,3-c]benzazepine]",Affinity to 5-HT2A receptors,5-HT2A receptors,high affinities
same,Affinity to 5-HT2C receptors,5-HT2C receptors,high affinities
same,Affinity for 5-HT3 receptors,5-HT3 receptors,high affinities
same,Affinity for adrenergic α2 receptors,adrenergic α2 receptors,high affinities
same,Affinity for histamine H1 receptors,histamine H1 receptors,high affinities
same,Affinity to 5-HT1A receptors,5-HT1A receptors,minimal affinity
